# Measurements taken from patent EP0385936A1, “Peptide lactone and derivatives thereof, process for their production and means for carrying out the process” (CIBA-GEIGY AG, priority 1989, dated 1990).
# Legend:
# [1] = Solubility in solvents (qualitative); type: physicochemical
# From the text: Hormaomycin ist neutral, löst sich gut in Methanol, Chloroform, Aceton und Essigsäureethylester und ist in Wasser oder Hexan unlöslich. Auf Dünnschichtchromatographie-Platten löscht es UV-Licht (254 nm), färbt sich beim Stehen an der Luft langsam gelb und lässt sich nach Barrollier (blaugrün) und mit Ehrlich's Reagenz (blass violett), nicht jedoch mit Ninhydrin anfärben.
# [2] = test system: durch anti-CD 3 monoklonale Antikörper induzierten T-Zell-Proliferation in menschlichem Blut; test: Inhibition of T-cell proliferation induced by anti-CD 3 monoclonal antibodies in human blood (3H-thymidine); type: cell-based, menschlich; conditions: 50 ng/ml anti-CD 3 antibody, 48 h + 16 h 3H-thymidine, read-out: IC₅₀
# Description: Hemmung der durch anti-CD 3 monoklonale Antikörper induzierten T-Zell-Proliferation in menschlichem Blut
# Venöses menschliches Blut wird mit 10 Einheiten Heparin pro ml versetzt und im Verhältnis 1:6 (v:v) mit RPMI 1640 Medium (Gibco) verdünnt. Nach Zugabe von 50 ng/ml anti-CD 3 monoklonalen Antikörpern (TR 66, IgG1K) werden pro Loch 150 µl verdünntes Blut in eine Lochtiterplatte mit 96 Löchern eingefüllt. Dann werden pro Loch 50 µl einer Verbindung der Formeln I oder III in dem obengenannten RPMI Medium hinzugefügt. Als Referenzverbindungen verwendet man Cyclosporin A (CSA, Sandoz, Basel, Schweiz) oder Prednisolon.
# Nach 48 Stunden bei 37°C und einem Gehalt von 7 Volumenprozent CO₂ in der Luft fügt man pro Loch 1.0 µCi ³H-Thymidin in 10 µl RPMI Medium (Amersham: spezifische Aktivität 5 Ci/mMol).
# Nach weiteren 16 Stunden werden die Zellen mit einer 96-Loch-Erntemaschine (LKB, Bromma, Schweden) auf Glasfiberfiltern (LKB) geerntet. Nach dem Trocknen der Filter wird ihre Radioaktivität gemessen (Optiscint[LKB], Betaplatten-Scintillations-Zähler [LKB]). Die Ergebnisse werden als Durchschnittswerte der für jedes Loch bei drei verschiedenen Konzentrationen in An- und Abwesenheit der Prüfsubstanzen ermittelten cpm (counts pro Minute) ausgedrückt und die Wirkung der Substanzen wird als prozentuale Hemmung angegeben, welche folgendermassen definiert ist: [formula] […]
# [3] = test system: Streptomyces griseoflavus (Tü 1306); test: Increase of tirandamycin production in fermentation broth; type: cell-based
# Description: (§1) Hormaomycin bewirkt bereits in einer Konzentration ab etwa 0,05 µg/ml bei einigen Streptomyceten-Stämmen eine Erhöhung der Bildung von Antibiotika.
# [4] = test system: Streptomyces griseoflavus (DSM 5195); test: Induction of aerial mycelium on test plates (paper disc on agar); type: cell-based; conditions: 1 µg in a paper disc on agar on which no aerial mycelium develops
# From the text: Hormaomycin induziert die Luftmycelbildung von Streptomyces griseoflavus (DSM 5195) und von weiteren Streptomyces-Stämmen. […] Zusätzlich induziert die Substanz die Antibiotikaproduktion in diesen Stämmen.
# [5] = test system: durch Interleukin-2 induzierten T-Zell-Proliferation in menschlichem Blut; test: Inhibition of T-cell proliferation induced by interleukin-2 in human blood (3H-thymidine); type: cell-based, menschlich; conditions: 100 Einheiten/ml recombinant interleukin-2, read-out: IC₅₀
# [6] = test system: einigen Streptomyceten-Stämmen; test: Increase of antibiotic formation in Streptomyces strains; type: cell-based; conditions: lowest effective concentration; read-out: Konzentration, ab der eine Erhöhung der Bildung von Antibiotika bewirkt wird
# Description: as §1
# [7] = test system: Arthrobacter oxydans ATCC 14358; test: Agar dilution series test, minimal inhibitory concentration; type: cell-based; conditions: Pseudarthrobacter oxydans, ATCC14358, in vitro, read-out: Minimale Hemmkonzentration
# Description: (§2) Hormaomycin zeigt in vitro in einem Agar-Verdünnungsreihentest eine antimikrobielle Wirkung gegen einige Bakterien, z.B. Arthrobacter crystallopoites, Arthrobacter oxydans, Corynebacterium species, Brevibacterium linens und Salmonella typhimurium. Die minimale Hemmkonzentration liegt im Bereich zwischen 0,0001 und 50 µg/ml. Die nachfolgende Tabelle offenbart einige spezifische Beispiele: […]
# [8] = test system: Arthrobacter crystallopoietes ATCC 15481; test: as above; type: cell-based; conditions: Crystallibacter crystallopoietes, ATCC15481, in vitro, read-out: Minimale Hemmkonzentration
# Description: as §2
# [9] = test system: Salmonella typhimurium ATCC 13311; test: as above; type: cell-based; conditions: Salmonella enterica, in vitro, read-out: Minimale Hemmkonzentration
# Description: as §2
# [10] = test system: Brevibacterium linens ATCC 9172; test: as above; type: cell-based; conditions: ATCC9172, in vitro, read-out: Minimale Hemmkonzentration
# Description: as §2
# [11] = test system: Corynebacterium sp. ATCC 23830; test: as above; type: cell-based; conditions: ATCC23830, in vitro, read-out: Minimale Hemmkonzentration
# Description: as §2
compound,measurement,setting,value
C/C=C\C1CC2C(=O)OC(C)C(NC(=O)C(CC3CC3[N+](=O)[O-])NC(=O)c3ccc(Cl)n3O)C(=O)NC(C(C)c3ccccc3)C(=O)NC(CC3CC3[N+](=O)[O-])C(=O)NC(C(C)c3ccccc3)C(=O)NC(C(C)CC)C(=O)N2C1 (stereo not shown) [Hormaomycin],Löslichkeit,"[1]; in Methanol, Chloroform, Aceton und Essigsäureethylester",löst sich gut
same,Löslichkeit,[1]; in Wasser oder Hexan,unlöslich
same,IC50,[2],1.5 to 15 µM
same,Produktion des Antibiotikums Tirandamycin,"[3]; Hormaomycin 0,05 µg/ml added to fermentation broth",Verdoppelung
same,Produktion des Antibiotikums Tirandamycin,[3]; Hormaomycin 1 µg/ml added to fermentation broth,ungefähre Vervierfachung
same,Luftmycelbildung,[4],reichliche Luftmycelbildung
same,IC50,[5],4 to 40 µM
same,minimal effective concentration,[6],~0.05 µg/mL
same,MIC,[7],0.0005 µg/mL
same,MIC,[8],0.0001 µg/mL
same,MIC,[9],50 µg/mL
same,MIC,[10],10 µg/mL
same,MIC,[11],0.1 µg/mL
